Data published in PubChem BioAssay AID328 (DTP/NCI, 2004).
Several values for one entry are separate records, joined by “and”; a condition that tells them apart may be missing. Identical values can stand only once. Toxic doses and inconclusive results are not listed.

System: BDF1 mice, P388 leukemia ip, median survival T/C
Assay: NCI In Vivo Anticancer Drug Screen. Data for tumor model P388 Leukemia (intraperitoneal) in B6D2F1 (BDF1) mice
Settings: endpoint: median survival time, higher = longer survival
Procedure, shortened: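 Reported as T/C, where T is the survival measurement in dosed animals and C the same measurement in vehicle controls.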

[1] = dose: 100.0 mg/kg/injection, schedule: Q04DX003 (ip), vehicle: saline with Tween-80
[2] = dose: 200.0 mg/kg/injection, schedule: Q04DX003 (ip), vehicle: saline with Tween-80
[3] = dose: 100.0 mg/kg/injection, schedule: Q01DX009 (ip), vehicle: saline
[4] = dose: 200.0 mg/kg/injection, schedule: Q01DX009 (ip), vehicle: saline
[5] = dose: 12.5 mg/kg/injection, schedule: Q04DX003 (ip), vehicle: saline with Tween-80
[6] = dose: 25.0 mg/kg/injection, schedule: Q04DX003 (ip), vehicle: saline with Tween-80
[7] = dose: 50.0 mg/kg/injection, schedule: Q04DX003 (ip), vehicle: saline with Tween-80
[8] = dose: 6.25 mg/kg/injection, schedule: Q04DX003 (ip), vehicle: water
[9] = dose: 50.0 mg/kg/injection, schedule: Q01DX009 (ip), vehicle: saline with Tween-80
[10] = dose: 50.0 mg/kg/injection, schedule: Q01DX009 (ip), vehicle: saline
[11] = dose: 100.0 mg/kg/injection, schedule: Q01DX009 (ip), vehicle: saline with Tween-80
[12] = dose: 200.0 mg/kg/injection, schedule: Q01DX009 (ip), vehicle: saline with Tween-80
[13] = dose: 100.0 mg/kg/injection, schedule: Q04DX003 (ip), vehicle: Klucel (hydroxypropylcellulose) (HPC)
[14] = dose: 200.0 mg/kg/injection, schedule: Q04DX003 (ip), vehicle: Klucel (hydroxypropylcellulose) (HPC)

`CCCCc1[nH]nc2c1C(=O)C(Nc1ccccc1)=CC2=O` was tested, and the T/C [1] was 103 % of control, the T/C [2] was 100 % of control and the T/C (dose: 400.0 mg/kg/injection, schedule: Q04DX003 (ip), vehicle: saline with Tween-80) was 100 % of control.

`O=C(NC1CCCC2C(NC(=O)c3ccccc3)CCCC12)c1ccccc1` (stereo unspecified) was tested, and the T/C (dose: 66.0 mg/kg/injection, schedule: Q01DX009 (ip), vehicle: saline) was 120 % of control, the T/C (dose: 100.0 mg/kg/injection, schedule: Q01DX001 (ip), vehicle: saline) was 104 % of control and the T/C [3] was 100 % of control and 109 % of control. For the same compound, the T/C (dose: 150.0 mg/kg/injection, schedule: Q01DX009 (ip), vehicle: saline) was 100 % of control and 109 % of control, the T/C (dose: 200.0 mg/kg/injection, schedule: Q01DX001 (ip), vehicle: saline) was 95 % of control and the T/C [4] was 115 % of control. The T/C (dose: 400.0 mg/kg/injection, schedule: Q01DX001 (ip), vehicle: saline) was 104 % of control and the T/C (dose: 400.0 mg/kg/injection, schedule: Q01DX009 (ip), vehicle: saline) was 100 % of control.

`CCN(CC)Cc1cc(Nc2cc(C)nc(Nc3ccc(Cl)c(Cl)c3)n2)ccc1OC` was tested, and the T/C [5] was 110 % of control, the T/C [6] was 110 % of control and the T/C [7] was 110 % of control.

With `CC1CNCC(C)N1C(=O)c1ccccc1` (stereo unspecified) the T/C (dose: 0.1 mg/kg/injection, schedule: Q01DX009 (ip), vehicle: water) was 96 % of control, the T/C (dose: 0.2 mg/kg/injection, schedule: Q01DX009 (ip), vehicle: water) was 105 % of control and the T/C (dose: 0.4 mg/kg/injection, schedule: Q01DX009 (ip), vehicle: water) was 115 % of control. The T/C (dose: 0.78 mg/kg/injection, schedule: Q04DX003 (ip), vehicle: water) was 97 % of control, the T/C (dose: 1.56 mg/kg/injection, schedule: Q04DX003 (ip), vehicle: water) was 104 % of control and the T/C (dose: 3.12 mg/kg/injection, schedule: Q04DX003 (ip), vehicle: water) was 104 % of control. For the same compound, the T/C [8] was 88 % of control.

For `OC(CN1CCCCC1)c1cc(-c2ccccc2)no1` (stereo unspecified), the T/C (dose: 25.0 mg/kg/injection, schedule: Q01DX009 (ip), vehicle: saline) was 100 % of control, the T/C [9] was 100 % of control and the T/C [10] was 105 % of control. For the same compound, the T/C [11] was 100 % of control, the T/C [3] was 107 % of control and the T/C [12] was 105 % of control. The T/C [4] was 88 % of control.

`CC1C=NNC1=O` (stereo unspecified) was tested, and the T/C (dose: 100.0 mg/kg/injection, schedule: Q01DX001 (ip), vehicle: saline with Tween-80) was 95 % of control and 118 % of control, the T/C (dose: 175.0 mg/kg/injection, schedule: Q01DX001 (ip), vehicle: saline with Tween-80) was 100 % of control and the T/C (dose: 176.0 mg/kg/injection, schedule: Q01DX009 (ip), vehicle: Klucel (hydroxypropylcellulose) (HPC)) was 120 % of control. For the same compound, the T/C (dose: 200.0 mg/kg/injection, schedule: Q01DX001 (ip), vehicle: saline with Tween-80) was 104 % of control, the T/C (dose: 265.0 mg/kg/injection, schedule: Q01DX001 (ip), vehicle: saline with Tween-80) was 100 % of control and the T/C (dose: 400.0 mg/kg/injection, schedule: Q01DX001 (ip), vehicle: saline with Tween-80) was 100 % of control. The T/C (dose: 600.0 mg/kg/injection, schedule: Q01DX001 (ip), vehicle: saline with Tween-80) was 109 % of control.

For `NCCCC(N)(CO)C(=O)O` (stereo unspecified), the T/C [10] was 91 % of control, the T/C [3] was 97 % of control and the T/C [4] was 100 % of control.

`O=C(NO)c1ccc(O)c(O)c1` was tested, and the T/C (dose: 200.0 mg/kg/injection, schedule: Q01DX005 (ip), vehicle: water) was 153 % of control and the T/C (dose: 400.0 mg/kg/injection, schedule: Q01DX005 (ip), vehicle: water) was 166 % of control.

In the case of `CC(C)COP(=O)(O)OCC(C)C.[Al]`, the T/C [9] is reported as 92 % of control, the T/C [11] is reported as 94 % of control and the T/C [12] is reported as 94 % of control.

`CCC1C(=O)NC(=O)C1(C)c1ccccc1` (stereo unspecified) was tested, and the T/C [9] was 191 % of control, the T/C [11] was 122 % of control and the T/C [12] was 120 % of control.

With `NP(=O)(N1CC1)N1CC1` the T/C (dose: 6.25 mg/kg/injection, schedule: Q04DX003 (ip), vehicle: saline) was 100 % of control and the T/C (dose: 25.0 mg/kg/injection, schedule: Q04DX003 (ip), vehicle: saline) was 230 % of control.

For `CC(=O)OCC(=O)[C@@]1(O)CC[C@H]2[C@@H]3C[C@H](F)C4=CC(=O)CC[C@]4(C)[C@H]3C(=O)C[C@@]21C`, the T/C (dose: 100.0 mg/kg/injection, schedule: Q01DX009 (ip), vehicle: other) was 100 % of control.

For `CCOC(=O)c1cnn2c(SC)ncnc12`, the T/C (dose: 12.5 mg/kg/injection, schedule: Q01DX009 (ip), vehicle: saline with Tween-80) was 99 % of control, the T/C (dose: 25.0 mg/kg/injection, schedule: Q01DX009 (ip), vehicle: saline with Tween-80) was 111 % of control and the T/C [6] was 109 % of control. The T/C [9] was 101 % of control, the T/C [7] was 100 % of control and the T/C [11] was 99 % of control. The T/C [1] was 109 % of control.

With `COC(=O)C1C2CCc3cc(OC)ccc3C2CCC1(C)C(=O)O` (stereo unspecified) the T/C (dose: 100.0 mg/kg/injection, schedule: Q01DX001 (ip), vehicle: saline sonified) was 100 % of control, the T/C (dose: 200.0 mg/kg/injection, schedule: Q01DX001 (ip), vehicle: saline sonified) was 104 % of control and the T/C (dose: 400.0 mg/kg/injection, schedule: Q01DX001 (ip), vehicle: saline sonified) was 100 % of control.

`Cc1ccccc1-c1nc2cc(Cl)ccc2c(=O)o1` was tested, and the T/C [6] was 104 % of control, the T/C [7] was 100 % of control and the T/C [1] was 109 % of control.

For `O=[N+]([O-])c1cc[n+]([O-])c(Br)c1`, the T/C [9] was 90 % of control, the T/C [1] was 100 % of control and the T/C [12] was 87 % of control. For the same compound, the T/C [2] was 90 % of control.

With `COC(=O)C1=C(C)NC(C)=C(C(=O)OC)C1C(C)Cl` (stereo unspecified) the T/C [9] was 118 % of control and the T/C [11] was 109 % of control.

For `CCCCCCCCCCCCS(=O)(=O)O` (tested in a mixture with another compound), the T/C [13] was 95 % of control and the T/C [14] was 90 % of control.

For `COC(C)C(O)(C(N)=O)C(C)C` (stereo unspecified), the T/C (dose: 100.0 mg/kg/injection, schedule: Q01DX009 (ip), vehicle: Klucel (hydroxypropylcellulose) (HPC)) was 95 % of control, the T/C [13] was 100 % of control and the T/C (dose: 200.0 mg/kg/injection, schedule: Q01DX009 (ip), vehicle: Klucel (hydroxypropylcellulose) (HPC)) was 86 % of control. For the same compound, the T/C [14] was 100 % of control, the T/C (dose: 400.0 mg/kg/injection, schedule: Q01DX009 (ip), vehicle: Klucel (hydroxypropylcellulose) (HPC)) was 90 % of control and the T/C (dose: 400.0 mg/kg/injection, schedule: Q04DX003 (ip), vehicle: Klucel (hydroxypropylcellulose) (HPC)) was 100 % of control.

With `COc1cccc2c1C(=O)c1c(O)c3c(c(O)c1C2=O)CC(O)(/C(C)=N/NC(=O)c1cc(C(F)(F)F)cc(C(F)(F)F)c1)CC3OC1CC(N)C(O)C(C)O1` (stereo unspecified) the T/C (dose: 3.13 mg/kg/injection, schedule: Q04DX003 (ip), vehicle: water) was 113 % of control, the T/C [8] was 109 % of control and the T/C (dose: 12.5 mg/kg/injection, schedule: Q04DX003 (ip), vehicle: water) was 153 % of control. For the same compound, the T/C (dose: 25.0 mg/kg/injection, schedule: Q04DX003 (ip), vehicle: water) was 153 % of control and the T/C (dose: 50.0 mg/kg/injection, schedule: Q04DX003 (ip), vehicle: water) was 118 % of control.

`CC(=O)N1c2cc3ccccc3cc2N(C(C)=O)c2cc3ccccc3cc21` was tested, and the T/C [11] was 102 % of control, the T/C [12] was 97 % of control and the T/C (dose: 400.0 mg/kg/injection, schedule: Q01DX009 (ip), vehicle: saline with Tween-80) was 117 % of control.

In the case of `O=C(c1ccccc1)C1CN(C2CCCC2)C1c1ccccc1` (stereo unspecified), the T/C [9] is reported as 91 % of control, the T/C [11] is reported as 92 % of control and the T/C [12] is reported as 91 % of control.

`O=C(C[n+]1ccc2ccccc2c1)c1ccccc1` was tested, and the T/C [5] was 100 % of control, the T/C [6] was 100 % of control and the T/C [7] was 100 % of control.

For `NC(N)=Nc1ccc(C(=O)O)cc1`, the T/C [7] was 104 % of control, the T/C [1] was 100 % of control and the T/C [2] was 100 % of control.

For `Clc1ccc2c(c1)nnn2OC1CCCC1`, the T/C [9] was 97 % of control, the T/C [11] was 88 % of control and the T/C [12] was 90 % of control.
